Data: patent US6723858B2, “Estrogenic compounds as anti-mitotic agents” (The Children's Medical Center Corporation, priority 1993, dated 2004)

Legend:
[1] = tested on: tubulin; test: inhibition of tubulin polymerization in vitro (turbidity at 350 nm); assay type: biochemical; settings: for IC50: read-out: IC50 (concentration required to inhibit tubulin polymerization by 50%), method of Example 1, average ± S.D., obtained graphically
Procedure: Anti-mitotic activity can be evaluated by testing the ability of an estradiol derivative to inhibit tubulin polymerization and microtubule assembly in vitro. Microtubule assembly is followed in a Gilford recording spectrophotometer (model 250 or […]) equipped with electronic temperature controllers. […] The 0.24 ml reaction mixtures are incubated for 15 min. at 37° C. and then chilled on ice. After addition of 10 μl 2.5 mM GTP, the reaction mixture is transferred to a cuvette at 0° C., and a baseline established. At time zero, the temperature controller of the spectrophotometer is set at 37° C. Microtubule assembly is evaluated by increased turbity at 350 nm. […] The 0.24 ml reaction mixtures were incubated for 15 min at 37° C. and chilled on ice. After addition of 10 μl of 2.5 mM GTP the reaction mixtures were transferred to cuvettes held at 0° C., and baselines were established. At time zero the temperature controller was set at 37° C. At the times indicated by the vertical dashed lines the temperature controller was set at the indicated temperatures. […] The 0.24 ml reaction mixtures were incubated for 15 min at 26° C. and chilled on ice. After addition of 10 μl of 10 mM GTP the reaction mixtures were transferred to cuvettes held at 0° C., and baselines were established. At time zero the temperature controller was set at 26° C. At the time indicated by vertical dashed line the temperature controller was set at 0° C.

[2] = tested on: chick embryo chorioallantoic membrane new blood vessel cells (angiogenesis); test: chick embryo chorioallantoic membrane (CAM) assay; assay type: in vivo; settings: 100 mg disk (methylcellulose disc) on CAM, after 48 hours
Procedure: Anti-mitotic activity is evaluated in situ by testing the ability of an improved estradiol derivative to inhibit the proliferation of new blood vessel cells (angiogenesis). A suitable assay is the chick embryo chorioallantoic membrane (CAM) assay described by Crum et al. Science 230:1375 (1985). See also, U.S. Pat. No. 5,001,116, hereby incorporated by reference, which describes the CAM assay. Briefly, fertilized chick embryos are removed from their shell on day 3 or 4, and a methylcellulose disc containing the drug is implanted on the chorioallantoic membrane. The embryos are examined 48 hours later and, if a clear avascular zone appears around the methylcellulose disc, the diameter of that zone is measured.

[3] = tested on: tubulin; test: inhibition of [3H]colchicine binding to tubulin; settings: 1.0 μM tubulin, 5% DMSO, 10 min at 37° C.; for Percent inhibition ± S.D. of colchicine binding to tubulin: 100 μM inhibitor, 2 μM [3H]colchicine
Procedure: Incubation was for 10 min at 37° C.
Incubation was for 10 min at 37° C. […] S.D., standard deviation.

## C[C@]12CC[C@@H]3c4cc(Br)c(O)cc4CC[C@H]3[C@@H]1CC[C@@H]2O [2-Bromoestradiol]
[1]
  IC50: 4.5 ± 0.6 µM

## C[C@]12CC[C@@H]3c4cc(F)c(O)cc4CC[C@H]3[C@@H]1CC[C@@H]2O [2-Fluoroestradiol]
[1]
  IC50: 27 ± 6 µM

## C#C[C@]1(O)CC[C@H]2[C@@H]3CCc4cc(O)c(OC)cc4[C@H]3CC[C@@]21C [2-Methoxy-17-ethynylestradiol]
[1]
  IC50: > 40 µM

## COc1cc2c(cc1OC)C1CCC3(C)C(O)CCC3C1CC2 (stereo not shown) [2-Methoxyestradiol-3-O-methyl ether]
[1]
  IC50: > 40 µM

## COc1cc2c(cc1O)CCC1C2CCC2(C)C(O)CCC12 (stereo not shown) [2-Methoxyestradiol]
[1]; 20-75 μM at 37° C. (A) or 1.0-4.0 μM at 26° C. (B)
  inhibition of tubulin polymerization (FIG. 1): inhibition of tubulin polymerization
[1]
  IC50: 1.9 ± 0.2 µM
[2]
  inhibition of cell mitosis and growth of new blood vessels: inhibit cell mitosis and the growth of new blood vessels
[3]; 5 μM [3H]colchicine
  inhibition of colchicine binding to tubulin (FIG. 2): inhibits colchicine binding to tubulin
[3]
  Percent inhibition ± S.D. of colchicine binding to tubulin: 82 ± 2%

## COc1cc2c(cc1O)CC[C@@H]1[C@@H]2CC[C@]2(C)[C@@H](O)[C@H](O)C[C@@H]12 [2-Methoxyestriol]
[1]
  IC50: > 40 µM

## COc1cc2c(cc1O)CC[C@@H]1[C@@H]2CC[C@]2(C)C(=O)CC[C@@H]12 [2-Methoxyestrone]
[1]
  IC50: 8.8 ± 1 µM
[3]
  Percent inhibition ± S.D. of colchicine binding to tubulin: 57 ± 6%

## COc1ccc2c(c1OC)CCC1C2CCC2(C)C(O)CCC12 (stereo not shown) [4-Methoxyestradiol-3-O-methyl ether]
[1]
  IC50: > 40 µM

## COc1c(O)ccc2c1CCC1C2CCC2(C)C(O)CCC12 (stereo not shown) [4-Methoxyestradiol]
[1]
  IC50: > 40 µM

## C#C[C@]1(O)CC[C@H]2[C@@H]3CCc4cc(O)ccc4[C@H]3CC[C@@]21C [17-Ethynylestradiol, reference compound]
[1]
  IC50: 10 ± 2 µM
[3]
  Percent inhibition ± S.D. of colchicine binding to tubulin: 50 ± 7%

## COc1ccc(CCc2cc(OC)c(OC)c(OC)c2)cc1O [Dihydrocombretastatin A-4, reference compound]
[1]
  IC50: 0.63 ± 0.03 µM

## COc1ccc2c(c1)CC[C@@H]1[C@@H]2CC[C@]2(C)[C@@H](O)CC[C@@H]12 [Estradiol-3-O-methyl ether]
[1]
  IC50: > 40 µM

## C[C@]12CC[C@@H]3c4ccc(O)cc4CC[C@H]3[C@@H]1C[C@@H](O)[C@@H]2O [Estriol, reference compound]
[1]
  IC50: > 40 µM
